Data reported in article PMC12281475, “Mediator Kinase Inhibitor Selectivity and Activity in Colorectal Cancer” (ACS Chemical Biology, 2025).

Tested on: COLO205 cells
Assay: Phospho-proteome profiling (CDK-motif antibody enrichment, LC-MS/MS)
Assay type: cell-based, human
Conditions: 6 H
Source text: We phospho-proteome profiled COLO205 cells to identify Mediator kinase substrates following chemical inhibition of Mediator kinase activity. Given the confirmed CDK8/19 selectivity of our compounds in binding and enzymatic activity assays, we employed a pool of antibodies selective for the proline-rich motifs phosphorylated by the CDK family to enrich potential CDK8/19 substrates for LC-MS/MS analysis.
Adherent COLO205 cells were lysed with a urea buffer, lysates were reduced with DTT, alkylated with iodoacetimide and digested with trypsin-tosylphenylalanyl chloromethyl ketone. Digested peptides were immunoprecipitated using a pool of motif antibodies from Cell Signaling Technologies (US) comprising: phospho-MAPK substrate (PXS*P or S*PXR/K, #2325, RRID:AB_331820), phospho-CDKs substrate ((K/H)-S*P, #2324; RRID:AB_2244779), phospho-PLK binding motif (ST*P, #5243; RRID:AB_10891778) and phospho-tPE motif (T*PE, #3004; RRID:AB_10890649)-of phospho-MAPK (2325), phospho-CDK (2324), phospho-PLK (5243) and phospho-tPE (C3004) motif-recognizing antibodies immobilized onto protein A/G beads. Immunoprecipitated peptides were analyzed using an LTQ-Orbitrap-Velos. Sequences were assigned to the MS/MS spectra and evaluated using SEQUEST 3G and SORCERER 2 (Sage-N Research v4.0, Milpitas). Quantitative data was evaluated and clustered in Spotfire Decision Site (www.spotfire.tibco.com) and normalized using quartile normalization. Functional annotation and pathway analysis used DAVID (https://david.ncifcrf.gov/). […]
Phospho-proteome analyses
Adherent COLO205 cells were washed with PBS and cells lysed using urea lysis buffer (9 M Urea, 20 mM HEPES, pH 8.0, 1 mM beta-glycerophosphate, 1 mM sodium vanadate, 2.5 mM sodium pyrophosphate) and stored at -80 °C prior to analysis. The supernatants were reduced with 100 mM DTT for 30 minutes at 55 °C, followed by alkylation with 50 mM iodoacetimide for 15 minutes at ambient temperature in the dark.
The samples were diluted in 20 mM HEPES, pH 8.0 and digested overnight with 10 ug/mL trypsin-tosylphenylalanyl chloromethyl ketone in 1 mM HCl. Digested peptides were acidified with 1% formic acid and then desalted over 360-mg SEP PAK C18 columns (Waters, UK). Peptides were eluted with 40% acetonitrile in 0.125% formic acid, dried under a vacuum and the lyophilised peptides used for immunoprecipitation.
A pool of motif antibodies from Cell Signaling Technologies (US) comprising: phospho-MAPK substrate (PXS*P or S*PXR/K, #2325, RRID:AB_331820), phospho-CDKs substrate ((K/H)S*P, #2324; RRID:AB_2244779), phospho-PLK binding motif (ST*P, […]
RRID:AB_10890649), were immobilised onto protein A/G beads overnight at 4 °C. The lyophilised peptides were resuspended in MOPS buffer (50 mM MOPS, pH 7.2, 10 mM KH2PO4, 50 mM NaCl) and centrifuged for 5 mins at 13,500 rpm in an Eppendorf benchtop microcentrifuge. The supernatants were incubated with the motif-bound beads for 2.5 hours at 4 °C . The beads were harvested by centrifugation at 4000 rpm in an Eppendorf benchtop microcentrifuge for 5 mins, washed with MOPS buffer twice and washed again 5 times with deionised water. The peptides were eluted off the beads using 0.125% formic acid, were desalted and dried under a vacuum. The lyophilised immunoprecipitated peptides were resuspended in 0.125% formic acid and separated on a capillary column packed with Magic C18 AQ reversed-phase resin.
Peptides were eluted using a 72-minute linear gradient of acetonitrile in 0.125% formic acid delivered at 280nL/min. Samples were analysed using an LTQ-Orbitrap-Velos.
MS Parameter Settings were: MS Run Time 96 min, MS1 Scan Range (300.0 – 1500.00), Top 20 MS/MS (Min Signal 500, Isolation Width 2.0, Normalized Coll.
Charge State Rejection Enabled, Charge State 1+ Rejected, Dynamic Exclusion Enabled, Repeat Count 1, Repeat Duration 35.0, Exclusion List Size 500, Exclusion Duration 40.0, Exclusion Mass Width Relative to Mass, Exclusion Mass Width 10ppm). […]

[1] = FAM122A peptide 69 - hglllpaSpvr - 79
[2] = FBLIM1 peptide 40 - grpweapapmkTpeaglagrpspwttpgr - 68
[3] = FBXW9 peptide 43 - sglafsrpsqlsTpaaSpSasepr - 66
[4] = FBXW9 peptide 48 - srpsqlStpaaSpsasepr - 66
[5] = FOSL1 peptide 235 - ftypStpepcasahr - 249
[6] = GATA6 peptide 26 - afparepStppSpisssssscsr - 48
[7] = GOLGA4 peptide 7 - qkiseeqqqlqqalapaqassnSStptrm#rsr - 39
[8] = HCFC1 peptide 1483 - avttvtqSTpvpgpsvpppeelqvSpgpr - 1511
[9] = HMCES peptide 152 - sgsigaadSpenwek - 166
[10] = HSPA12A peptide 99 - tpttillTper - 109
[11] = INCENP peptide 259 - iaqvSpgprdSpafpdSpwrer - 280
[12] = KANSL1 peptide 955 - ttpqlgSanpSTpqpaSpdvssshslseyShgqSpr - 989
[13] = KIAA1522 peptide 509/569 - rpprSper - 517/576
[14] = KLF6 peptide 140 - lsssvtStppsSpelsrepsqlwgcvpgelpSpgkvr - 176
[15] = KMT2A peptide 3025 - nssTpglqvpvsptvpiqnqk - 3045
[16] = L3MBTL2 peptide 60 - eagelpTSplhllSpgTpr - 78
[17] = LARP4B peptide 725 - rlSreqSTppkSpq - 738
[18] = LASP1 peptide 60 - qsftmvadTpenlr - 73
[19] = LCOR peptide 1212 - arpstkTpessaaqr - 1226
[20] = LIMD1 peptide 190 - wgdkpgvSpSiglsvgsgwpSspgsdpplpkpcgdhplnhr - 230
[21] = LMNA peptide 12 - sgaqaSstplSptr - 25
[22] = LMO7 peptide 595/929 - YngdvedikrTpnnvvSTpapSpdasqlasslssqk - 630/964
[23] = LSM14B peptide 85 - aqhtlpqdpaivqsslgsasaSpfqphvpYSpfr - 118
[24] = MAP7 peptide 668 - vtvesTpdlekqpnengvsvqnenfeeiinlpigskpsr - 706
[25] = MCM4 peptide 38 - rgedststgelqpmptSpgvdlqSpaaqdvl - 68

For `Cn1cc(-c2ccc(-c3cncc(Cl)c3N3CCC4(CCNC4=O)CC3)cc2)cn1` [CCT251545], the “MEAN MS SIGNAL CMPD 1 6 H” value (EZH2 peptide 46 - grlpnnssrpstpTinvlesk - 376) was 31995, the “CMPD 1/DMSO” value [1] was 2.184 and the “MEAN MS SIGNAL CMPD 1 6 H” value [1] was 196079. The “CMPD 1/DMSO” value [2] was 0.573, the “MEAN MS SIGNAL CMPD 1 6 H” value [2] was 86595 and the “CMPD 1/DMSO” value [3] was 0.530. The “MEAN MS SIGNAL CMPD 1 6 H” value [3] was 311610, the “CMPD 1/DMSO” value [4] was 0.400 and the “MEAN MS SIGNAL CMPD 1 6 H” value [4] was 48006. The “CMPD 1/DMSO” value [5] was 0.504, the “MEAN MS SIGNAL CMPD 1 6 H” value [5] was 66830 and the “CMPD 1/DMSO” value [6] was 2.355. The “MEAN MS SIGNAL CMPD 1 6 H” value [6] was 187382, the “CMPD 1/DMSO” value [7] was 2.322 and the “MEAN MS SIGNAL CMPD 1 6 H” value [7] was 104624. For the same compound, the “CMPD 1/DMSO” value [8] was 0.405, the “MEAN MS SIGNAL CMPD 1 6 H” value [8] was 16700 and the “CMPD 1/DMSO” value [9] was 0.453. For the same compound, the “MEAN MS SIGNAL CMPD 1 6 H” value [9] was 63819, the “CMPD 1/DMSO” value [10] was 0.556 and the “MEAN MS SIGNAL CMPD 1 6 H” value [10] was 24367. For the same compound, the “CMPD 1/DMSO” value [11] was 0.465, the “MEAN MS SIGNAL CMPD 1 6 H” value [11] was 323217 and the “CMPD 1/DMSO” value [12] was 0.484. The “MEAN MS SIGNAL CMPD 1 6 H” value [12] was 12101, the “CMPD 1/DMSO” value [13] was 1.797 and the “MEAN MS SIGNAL CMPD 1 6 H” value [13] was 115710. The “CMPD 1/DMSO” value [14] was 0.607, the “MEAN MS SIGNAL CMPD 1 6 H” value [14] was 32118 and the “CMPD 1/DMSO” value [15] was 2.063. For the same compound, the “MEAN MS SIGNAL CMPD 1 6 H” value [15] was 28229, the “CMPD 1/DMSO” value [16] was 0.490 and the “MEAN MS SIGNAL CMPD 1 6 H” value [16] was 91427. The “CMPD 1/DMSO” value [17] was 2.299, the “MEAN MS SIGNAL CMPD 1 6 H” value [17] was 120169 and the “CMPD 1/DMSO” value [18] was 0.584. The “MEAN MS SIGNAL CMPD 1 6 H” value [18] was 786663, the “CMPD 1/DMSO” value [19] was 0.545 and the “MEAN MS SIGNAL CMPD 1 6 H” value [19] was 120796. The “CMPD 1/DMSO” value [20] was 0.471, the “MEAN MS SIGNAL CMPD 1 6 H” value [20] was 25519 and the “CMPD 1/DMSO” value [21] was 0.517. For the same compound, the “MEAN MS SIGNAL CMPD 1 6 H” value [21] was 46469, the “CMPD 1/DMSO” value [22] was 0.463 and the “MEAN MS SIGNAL CMPD 1 6 H” value [22] was 25654. For the same compound, the “CMPD 1/DMSO” value [23] was 0.523, the “MEAN MS SIGNAL CMPD 1 6 H” value [23] was 38083 and the “CMPD 1/DMSO” value [24] was 0.544. The “MEAN MS SIGNAL CMPD 1 6 H” value [24] was 159179, the “CMPD 1/DMSO” value [25] was 0.432 and the “MEAN MS SIGNAL CMPD 1 6 H” value [25] was 77526. For the same compound, the “CMPD 1/DMSO” value (MCM4 peptide 69 - fSsppqmhssaipldfdvSsplTygtpssr - 98) was 0.605.
